# Test results from patent US12060347B2 (BRISTOL-MYERS SQUIBB COMPANY, priority 2016, dated 2024).
# Target: T1, human PAR4 (Homo sapiens, UniProt Q96RI0)
# T1 construct: expressed in transfected cells; host or cells: HEK293 PAR4 Clone 1.2A (BMS Arctic ID 383940)
# T1 sequence (Q96RI0 18-385): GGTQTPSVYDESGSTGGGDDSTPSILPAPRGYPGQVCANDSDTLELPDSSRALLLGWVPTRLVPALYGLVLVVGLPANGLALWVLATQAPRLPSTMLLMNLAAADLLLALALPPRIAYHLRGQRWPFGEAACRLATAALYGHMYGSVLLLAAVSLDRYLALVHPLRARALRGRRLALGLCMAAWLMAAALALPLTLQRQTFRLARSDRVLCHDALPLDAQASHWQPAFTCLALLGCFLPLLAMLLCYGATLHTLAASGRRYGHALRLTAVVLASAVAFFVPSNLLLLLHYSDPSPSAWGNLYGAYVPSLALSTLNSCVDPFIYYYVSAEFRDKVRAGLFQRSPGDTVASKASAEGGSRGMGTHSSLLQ
# Experiment: PAR4 FLIPR assay: antagonism of agonist-peptide-induced calcium mobilization in PAR4-expressing HEK293 cells
# Format: cell-based
# Conditions: H-Ala-Phe(4-F)-[…]NH2-induced intracellular calcium mobilization, 11-point curves
row,Compound,IC50 [nM]
1,"COc1cnc2c(-c3nc4cc(F)c(O[C@@H](C)[C@@H](C)OC(=O)Nc5cnc(OCCO)nc5)nc4s3)cc(C)cc2c1 [Example 775, (2R,3S)-3-((6-fluoro-2-(3-methoxy-6-methylquinolin-8-yl)thiazolo[5,4-b]pyridin-5-yl)oxy)butan-2-yl (2-(2-hydroxyethoxy)pyrimidin-5-yl)carbamate]",0.8
2,"COc1cnc2c(-c3nc4cc(F)c(OC[C@@H](C)OC(=O)Nc5ccc6[nH]c(=O)oc6c5)nc4s3)cc(C)cc2n1 [Example 683, (R)-1-((6-fluoro-2-(2-methoxy-7-methylquinoxalin-5-yl)thiazolo[5,4-b]pyridin-5-yl)oxy) propan-2-yl (2-oxo-2,3-dihydrobenzo[d]oxazol-6-yl)carbamate]",0.7
3,"COc1cnc2c(-c3nc4cc(F)c(OC[C@@H](C)OC(=O)Nc5ccc(NC(C)=O)nc5)cc4s3)cc(C)cc2n1 [Example 610, (R)-1-((5-fluoro-2-(2-methoxy-7-methylquinoxalin-5-yl)benzo[d]thiazol-6-yl)oxy)propan-2-yl (6-acetamidopyridin-3-yl)carbamate]",4.3
4,"COc1cnc2c(-c3nc4cc(F)c(O[C@@H](C)[C@@H](C)OC(=O)Nc5ccc(C(=O)NCCC(C)(C)O)nc5)cc4s3)cc(C)cc2n1 [Example 446, (2R,3S)-3-((5-fluoro-2-(2-methoxy-7-methylquinoxalin-5-yl)benzo[d]thiazol-6-yl)oxy)butan-2-yl (6-((3-hydroxy-3-methylbutyl)carbamoyl)pyridin-3-yl)carbamate]",2.3
5,"COCc1cnc2c(-c3nc4c(C5CC5)cc(OCCNS(=O)(=O)c5ccc(F)cc5)cc4s3)cc(C)cc2n1 [Example 105, N-(2-(4-cyclopropyl-2-(2-(methoxymethyl)-7-methylquinoxalin-5-yl)benzo[d]thiazol-6-yloxy)ethyl)-4-fluorobenzenesulfonamide]",8.1
6,"Cc1cc(-c2nc3c(C)cc(OCCNS(=O)(=O)c4ccc(Cl)cc4)cc3s2)c2ncc(OC(F)F)nc2c1 [Example 86, 4-chloro N-(2-(2-(2-(difluoromethoxy)-7-methylquinoxalin-5-yl)-4-methylbenzo[d]thiazol-6-yloxy)ethyl)benzenesulfonamide]",7.2
7,"Cc1cc(-c2nc3c(C)cccc3s2)c2ncc(OC(F)F)nc2c1 [Example 52, 2-(2-(difluoromethoxy)-7-methylquinoxalin-5-yl)-4-methylbenzo[d]thiazole]",4.7
8,"COc1cnc2c(-c3nc4c(C)c(F)c(OCCOC(=O)Nc5ccc(F)nc5)cc4s3)cc(C)cc2n1 [Example 302, 2-((5-fluoro-2-(2-methoxy-7-methylquinoxalin-5-yl)-4-methylbenzo[d]thiazol-6-yl)oxy)ethyl (6-fluoropyridin-3-yl)carbamate]",3.2
9,"COc1cnc2c(-c3nc4cc(F)c(O[C@@H](C)[C@@H](C)OC(=O)Nc5cnc(O[C@@H](C)CO)nc5)nc4s3)cc(C)cc2n1 [Example 724, (2R,3S)-3-((6-fluoro-2-(2-methoxy-7-methylquinoxalin-5-yl)thiazolo[5,4-b]pyridin-5-yl)oxy)butan-2-yl (2-(((S)-1-hydroxypropan-2-yl)oxy)pyrimidin-5-yl)carbamate]",2.1
10,"COc1cnc2c(-c3nc4cc(F)c(OCCOC(=O)Nc5cnc(F)c(C)c5)nc4s3)cc(C)cc2n1 [Example 811, 2-((6-fluoro-2-(2-methoxy-7-methylquinoxalin-5-yl)thiazolo[5,4-b]pyridin-5-yl)oxy) ethyl (6-fluoro-5-methylpyridin-3-yl)carbamate]",1.5
11,"COC(=O)NCCOc1ccc(C)c2nc(-c3cc(C)cc4nc(OC(F)F)cnc34)sc12 [Example 70, Methyl 2-(2-(2-(difluoromethoxy)-7-methylquinoxalin-5-yl)-4-methylbenzo[d]thiazol-7-yloxy)ethylcarbamate]",34
12,"COC(=O)c1cnc2c(-c3cc4ccccc4o3)cc(C)cc2n1 [Example 176, methyl 5-(benzofuran-2-yl)-7-methylquinoxaline-2-carboxylate]",980
13,"COc1cnc2c(-c3nc4c(C)cc(OCCOC(=O)Nc5ccc(C)nc5)cc4s3)cc(CO)cc2n1 [Example 128, 2-(2-(7-(hydroxymethyl)-2-methoxyquinoxalin-5-yl)-4-methylbenzo[d]thiazol-6-yloxy)ethyl 6-methylpyridin-3-ylcarbamate]",2.2
14,"COc1cnc2c(-c3nc4cc(F)c(OCCOC(=O)Nc5cccnc5)nc4s3)cc(C)cc2n1 [Example 810, 2-((6-fluoro-2-(2-methoxy-7-methylquinoxalin-5-yl)thiazolo[5,4-b]pyridin-5-yl)oxy)ethyl pyridin-3-ylcarbamate]",6.9
15,"COc1cnc2c(-c3nc4cc(F)c(O[C@@H](C)[C@@H](C)OC(=O)Nc5ccnc(CO)c5)nc4s3)cc(C)cc2n1 [Example 723, (2R,3S)-3-((6-fluoro-2-(2-methoxy-7-methylquinoxalin-5-yl)thiazolo[5,4-b]pyridin-5-yl)oxy)butan-2-yl (2-(hydroxymethyl)pyridin-4-yl)carbamate]",2.4
16,"Cc1cc(-c2nc3cccc(OCc4cscn4)c3s2)c2ncc(OC(F)F)nc2c1 [Example 15, 2-(2-(difluoromethoxy)-7-methylquinoxalin-5-yl)-7-(thiazol-4-ylmethoxy)benzo[d]thiazole]",38
17,"COc1cnc2c(-c3nc4c(C)cc(OCCOC(=O)Nc5ccc(-c6cccs6)nc5)nc4s3)cc(C)cc2n1 [Example 812, 2-((2-(2-methoxy-7-methylquinoxalin-5-yl)-7-methylthiazolo[5,4-b]pyridin-5-yl)oxy) ethyl (6-(thiophen-2-yl)pyridin-3-yl)carbamate]",7
18,"COc1cnc2c(-c3nc4cc(F)c(O[C@@H](C)[C@@H](C)OC(=O)Nc5ccc(CCO)nc5)cc4s3)cc(Cl)cc2n1 [Example 836, (2R,3S)-3-((2-(7-chloro-2-methoxyquinoxalin-5-yl)-5-fluorobenzo[d]thiazol-6-yl)oxy)butan-2-yl (6-(2-hydroxyethyl)pyridin-3-yl)carbamate]",1.2

# Second part, the molecule after the results:
row,IC50 [nM],Compound
1,0.3,"COCc1cnc2c(-c3nc4c(Cl)cc(OCCNS(C)(=O)=O)cc4s3)cc(C)cc2n1 [Example 98, N-(2-(4-chloro-2-(2-(methoxymethyl)-7-methylquinoxalin-5-yl)benzo[d]thiazol-6-yloxy)ethyl)methanesulfonamide]"
2,1.4,"COc1cc(C(O)C(C)(C)C)c2nc(-c3cc(C)cc4nc(OC)cnc34)sc2c1 (stereo not shown) [Example 630, 1-(6-methoxy-2-(2-methoxy-7-methylquinoxalin-5-yl)benzo[d]thiazol-4-yl)-2,2-dimethylpropan-1-ol]"
3,0.3,"COCc1cnc2c(-c3nc4c(Cl)cc(OC)cc4s3)cc(C)cc2n1 [Example 93, 4-chloro-6-methoxy-2-(2-(methoxymethyl)-7-methylquinoxalin-5-yl)benzo[d]thiazole]"
4,7,"COCc1cnc2c(-c3nc4cnccc4s3)cc(C)cc2n1 [Example 146, 2-(2-(methoxymethyl)-7-methylquinoxalin-5-yl)thiazolo[4,5-c]pyridine]"
5,590,"COc1cnc2c(-c3nc4c(Cl)c(F)c(OCCOC(=O)Nc5csc(Cl)n5)cc4s3)cc(C)cc2n1 [Example 383, 2-((4-chloro-5-fluoro-2-(2-methoxy-7-methylquinoxalin-5-yl)benzo[d]thiazol-6-yl)oxy)ethyl (2-chlorothiazol-4-yl)carbamate]"
6,4.8,"COCc1cnc2c(-c3nc4c(Cl)cccc4s3)cc(C)cc2n1 [Example 260, 4-chloro-2-(2-(methoxymethyl)-7-methylquinoxalin-5-yl)benzo[d]thiazole]"
7,10,"COc1cnc2c(-c3nc4c(Cl)c(C)c(OC)cc4s3)cc(C)cc2n1 [Example 299, 4-chloro-6-methoxy-2-(2-methoxy-7-methylquinoxalin-5-yl)-5-methylbenzo[d] thiazole]"
8,1.9,"COCc1cnc2c(-c3nc4c(Cl)c(F)c(OC)cc4s3)cc(C)cc2n1 [Example 283, 4-chloro-5-fluoro-6-methoxy-2-(2-(methoxymethyl)-7-methylquinoxalin-5-yl)benzo[d]thiazole]"
9,4.5,"COCc1cnc2c(-c3nc4c(C(O)c5ccccn5)cc(OC)cc4s3)cc(C)cc2n1 (stereo not shown) [Example 167, (6-methoxy-2-(2-(methoxymethyl)-7-methylquinoxalin-5-yl)benzo[d]thiazol-4-yl)(pyridin-2-yl)methanol]"
10,17,"COc1cc(C)c2nc(-c3cc(Cl)cc4nc(OC)cnc34)sc2c1 [Example 837, 2-(7-chloro-2-methoxyquinoxalin-5-yl)-6-methoxy-4-methylbenzo[d]thiazole]"
11,4.3,"COc1cnc2c(-c3nc4c(Cl)c(F)c(OC[C@@H](C)OC(=O)Nc5ccc(C)nc5)cc4s3)cc(C)cc2n1 [Example 377, (R)-1-((4-chloro-5-fluoro-2-(2-methoxy-7-methylquinoxalin-5-yl)benzo[d]thiazol-6-yl)oxy)propan-2-yl (6-methylpyridin-3-yl)carbamate]"
12,5.5,"COc1cnc2c(-c3nc4c(Cl)c(F)c(OCCOC(=O)Nc5ccnc(C)c5)cc4s3)cc(C)cc2n1 [Example 336, 2((4-chloro-5-fluoro-2-(2-methoxy-7-methylquinoxalin-5-yl)benzo[d]thiazol-6-yl)oxy)ethyl (2-methylpyridin-4-yl)carbamate]"
13,5.7,"COCc1cnc2c(-c3nc4c(C)c(C)c(OCCO)cc4s3)cc(C)cc2n1 [Example 297, 2-((2-(2-(methoxymethyl)-7-methylquinoxalin-5-yl)-4,5-dimethylbenzo[d]thiazol-6-yl)oxy)ethanol]"
